{"source": "patent US20140155415A1", "about": "“BENZ[…] BENZODIOXINE COMPOUNDS THAT INTERACT WITH G[…] FOR THE TREATMENT OF DIABETES” (priority 2011, published 2014)", "key": {"[1]": {"target": "T1, GK-GKRP (interaction between glucokinase and glucokinase regulatory protein) (Homo sapiens, UniProt Q14397)", "T1 construct": "made in house; host or cells: GKRP: baculovirus system", "T1 sequence (Q14397 1-625)": "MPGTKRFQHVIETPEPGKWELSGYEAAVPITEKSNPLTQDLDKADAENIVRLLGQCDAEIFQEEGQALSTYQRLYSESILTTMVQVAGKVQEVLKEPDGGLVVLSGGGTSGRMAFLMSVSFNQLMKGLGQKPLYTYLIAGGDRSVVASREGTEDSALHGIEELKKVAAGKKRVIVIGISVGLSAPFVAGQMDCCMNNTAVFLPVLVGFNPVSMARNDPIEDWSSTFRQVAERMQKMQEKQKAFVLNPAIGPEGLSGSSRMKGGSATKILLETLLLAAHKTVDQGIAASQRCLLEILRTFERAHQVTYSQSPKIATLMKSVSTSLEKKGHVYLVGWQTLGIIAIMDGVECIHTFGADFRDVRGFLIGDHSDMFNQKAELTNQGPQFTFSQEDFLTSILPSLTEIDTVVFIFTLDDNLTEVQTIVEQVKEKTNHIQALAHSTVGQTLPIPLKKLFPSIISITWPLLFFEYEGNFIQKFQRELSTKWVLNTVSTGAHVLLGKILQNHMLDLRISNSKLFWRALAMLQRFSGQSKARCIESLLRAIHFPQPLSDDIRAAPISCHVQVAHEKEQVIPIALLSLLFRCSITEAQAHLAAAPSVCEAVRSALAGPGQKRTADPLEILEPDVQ", "assay": "GK-GKRP Binding Assay (Binding), AlphaScreen", "settings": "avi-tagged GKRP, GK-fluorescein, AlphaScreen beads, 1 μM sorbitol-6-phosphate; read-out: GK-GKRP IC50 (Binding)", "outline": "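Biotinylated, C-terminally avi-tagged human GKRP was preincubated 20 min at room temperature with compound, then fluorescein-labelled human hepatic GK was added (6 nM in the added buffer). The mix was incubated 2 h at room temperature in the dark before AlphaScreen reading. Buffer was 20 mM Tris pH 7.5, 0.05% BSA, 1 mM DTT, 1 μM sorbitol-6-phosphate.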"}, "[2]": {"target": "T2, GK-GKRP (glucokinase / glucokinase regulatory protein) (Homo sapiens, UniProt Q14397)", "T2 sequence (Q14397 1-625)": "T1 sequence (Q14397 1-625)", "assay": "GKRP LC MS/MS Biochemical Assay (LCMS/MS)", "settings": "formation of 13C-glucose-6-phosphate from 13C-glucose by LC MS/MS, human His-hepatic GK, fructose-6-phosphate", "outline": "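Human His-tagged hepatic GK (30 nM working stock, 5×) with GKRP in 50 mM Tris pH 7.5, 4 mM MgCl2, 6% DMSO; compound preincubated 30 min, then GK added for 30 min at room temperature. Acetonitrile-stopped; 13C-glucose-6-phosphate formed from 13C-glucose quantified by LC MS/MS.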"}}, "data": [{"smiles": "C[C@@](O)(c1ccnc(-c2cccc3cc([C@@H](NS(=O)(=O)c4ccc5c(c4)OCCCO5)c4ccccc4)sc23)c1)C(F)(F)F", "note": "(single isomer, unassigned) [Example 70 Peak #3]", "values": [{"measurement": "IC50", "setting": "[1]", "result": 330, "unit": "nM"}, {"measurement": "EC50", "setting": "[2]", "result": 170, "unit": "nM"}]}, {"smiles": "C[C@](O)(c1ccnc(-c2cccc3cc([C@@H](NS(=O)(=O)c4ccc5c(c4)OCCCO5)c4ccccc4)sc23)c1)C(F)(F)F", "note": "(single isomer, unassigned) [Example 70 Peak #4]", "values": [{"measurement": "IC50", "setting": "[1]", "result": 110, "unit": "nM"}, {"measurement": "EC50", "setting": "[2]", "result": 74, "unit": "nM"}]}, {"smiles": "O=S(=O)(N[C@H](c1ccccc1)c1cc2cccc(-c3ccccn3)c2s1)c1ccc2c(c1)OCCCO2", "note": "(single isomer, unassigned) [Example 71 Peak #2]", "values": [{"measurement": "IC50", "setting": "[1]", "result": 350, "unit": "nM"}, {"measurement": "EC50", "setting": "[2]", "result": 120, "unit": "nM"}]}]}
